Patent US10221168B1, “Small-compound enhancers for functional O-mannosylation of alpha-dystroglycan, and uses thereof” (priority 2015, dated 2019)

System: FOG of α-DG on the cell surfaces
Assay: Cell-based HTS/HCS assay, IIH6 antibody as probe (EC1.5)
Settings: concentration of the compound required to enhance the FOG of α-DG by 50% over the controls; cell-based assays in vitro
Excerpt: Protein glycosylation is a multiple-step process that requires a large number of proteins in the secretory pathway of the cells. Thus we chose cell-based assay because our goal is to identify enhancer the FOG of α-DG on the cell surfaces. The assay system is HTS/HCS friendly and can adapt to various cell lines including myotubes as well as various readout methods including AlphaScreen, fluorescence density and HCS/fluorescence imaging. The standard operation protocol (SOP) for adhesion cells is described below and the FIG. 1 illustrates the assay process using myoblasts as the controls and screening cells and the IIH6 antibody as the probe. Other adhesion cells such CHO (Chinese hamster ovary) cell line can be implemented into this assay by simply removing the differentiation step.
Cell cultures: All cells are cultured at 37° C., 5% CO2, in appropriate media (F-12 for epithelial cells and DMEM for myoblasts) supplement with 10-20% fetal calf serum (FCS) and 1% antibiotics. […] The cells will be detached with trypsin EDTA and suspended in the cell culture media. The cells will be counted and seeded into the multiple-well plates as desired. Myotubes formation: When the myoblasts reach confluence, change the growth media to differential media (DEME with 2% horse serum) and incubate for 4-5 days.
The cells were fixed, permeablized, and then blocked with 10% BSA in PBS for 1 hour. […] After washing the cells with PBS for 2 times, the DAPI was used to stain the cells for 15 mins and wash 3 times with PBS. The images were captured with an inverted Olympus fluorescent microscope. For small compound localization experiment, the cells are incubated with the biotin conjugated compounds and then the cells were washed and incubated with streptavidin-Dye and then images will be captured to see the location of the compound-target-protein.
H, EC1.5<5 μM; M, EC1.5-20 μM; L, EC1.5 20-50 μM; VL, EC1.5>50 μM.

| SMILES | Activity (EC1.5) |
| --- | --- |
| CCC(c1nnnn1Cc1cccs1)N1CCN(c2nc3c(N)cccc3s2)CC1 (stereo not shown) [Compound 23, 4-aminn-2-(4-(1-(1-(thiophen-2-ylmethyl) 1H-tetrazol-5-yl)propyl)piperazin-1-yl)benzothiazole] | M (EC1.5-20 μM) |
| CCC(c1nnnn1Cc1cccs1)N1CCN(c2nc3c(F)cc(N)c(F)c3s2)CC1 (stereo not shown) [Compound 51, 6-amino-4,7-difluoro-2-(4-(1-(1-(thiophen-2-ylmethyl)-1H-tetrazol-5-yl)propyl)piperazin-1-yl)benzothiazole] | H (EC1.5<5 μM) |
| CCC(c1nnnn1Cc1cccs1)N1CCCN(c2nc3cc(N)cc(F)c3s2)CCC1 (stereo not shown) [Compound 72, 5-amino-7-fluoro-2-(5-(1-(1-(thiophen-2-ylmethyl)-1H-tetrazol-5-yl)propyl)1,5-diazocane-1-yl)benzothiazole] | H (EC1.5<5 μM) |
| CCC(c1nnnn1Cc1cccs1)N1CCN(c2nc3cc(N)ccc3s2)CC1 (stereo not shown) [Compound 29, 5-amino-2-(4-(1-(1-(thiophen-2-ylmpthyl)-1H-tetrazol-5-yl)propyl)piperazin-1-yl)benzothiazole] | H (EC1.5<5 μM) |
| CCC(c1nnnn1Cc1cccs1)N1CCN(c2nc3cccc(C(=O)O)c3s2)CC1 (stereo not shown) [Compound 36, 2-(4-(1-(1-(thiophen-2-ylmethyl)-1H-tetrazol-5-yl)propyl)piperazin-1-yl)benzothiazole-7-carboxylic acid] | L (EC1.5 20-50 μM) |
| CCC(c1nnnn1Cc1cccs1)N1CCN(c2nc3ccc(C)cc3s2)CC1 (stereo not shown) [Compound 16, 6-methyl-2-(4-(1-(1-(thiophen-2-ylmethyl)-1H-tetrazol-5-yl)propyl)piperazin-1-yl)benzothiazole] | L (EC1.5 20-50 μM) |
| CCC(c1nnnn1Cc1cccs1)N1CCN(c2nc3c(F)c(N)c(N)c(F)c3s2)CC1 (stereo not shown) [Compound 52, 5,6-diamino-4,7-difluoro-2-(4-(1-(1-(thiophen-2-ylmethyl)-1H-tetrazol-5-yl)propyl)piperazin-1-yl)benzothiazole] | H (EC1.5<5 μM) |
| CCC(c1nnnn1Cc1ccc(F)s1)N1CCN(c2nc3cc(N)cc(F)c3s2)CC1 (stereo not shown) [Compound 57, 5-amino-7-fluoro-2-(4-(1-(1-(5-fluoro-thiophen-2-ylmethyl)-1H-tetrazol-5-yl)propyl)piperazin-1-yl)benzothiazole] | H (EC1.5<5 μM) |
| CCC(c1nnnn1Cc1cccs1)N1CCN(c2nc3cccc(O)c3s2)CC1 (stereo not shown) [Compound 37, 7-hydroxyl-2-(4-(1-(1-(thiophen-2-ylmethyl)-1H-tetrazol-5-yl)propyl)piperazin-1-yl)benzothiazole] | L (EC1.5 20-50 μM) |
| CCC(c1nnnn1Cc1cccs1)N1CCN(c2nc3ccc(N)c(F)c3s2)CC1 (stereo not shown) [Compound 49, 6-amino-7-fluoro-2-(4-(1-(1-(thiophen-2-ylmethyl)-1H-tetrazol-5-yl)propyl)piperazin-1-yl)benzothiazole] | H (EC1.5<5 μM) |
| CCC(C(=O)NCc1cccs1)c1ccc(-c2nc3ccccc3s2)cc1 (stereo not shown) [Compound 38, 2-(4-(benzothiazol-2yl)phenyl)-N-(thiophen-2-ylmethyl)butanamide] | M (EC1.5-20 μM) |
| CCC(c1nnnn1Cc1cccs1)C1CCCN(c2nc3cc(N)cc(F)c3s2)CC1 (stereo not shown) [Compound 70, 5 amino-7-fluoro-2-(4-(1-(1-(thiophen-2-ylmethyl)-1H-tetrazol-5-yl)propyl)azepane-1-yl)benzothiazole] | H (EC1.5<5 μM) |
| CCC(C(=S)NCc1cccs1)c1ccc(-c2nc3ccccc3s2)cc1 (stereo not shown) [Compound 39, 2-(4-(benzothiazol-2-yl)phenyl)-N-(thiophen-2-ylmethyl)butanethioamide] | M (EC1.5-20 μM) |
| CCC(c1nnnn1Cc1cccs1)N1CCCN(c2nc3cc(N)cc(F)c3s2)CC1 (stereo not shown) [Compound 71, 5-amino-7-fluoro-2-(4-(1-(1-(thiophen-2-ylmethyl)-1H-tetrazol-5-yl)propyl)1,4-diazepane-1-yl)benzothiazole] | H (EC1.5<5 μM) |
| CCC(c1nnnn1Cc1cccs1)N1CCN(c2nc3cccnc3s2)CC1 (stereo not shown) [Compound 24, 2-(4-(1-(1-(thiophen-2-ylmethyl)-1H-tetrazol-5-yl)propyl)piperazin-1-yl)thiazolo[5,4-b]pyridine] | M (EC1.5-20 μM) |
| CCC(c1nnnn1CCc1ccc(F)s1)N1CCN(c2nc3cc(N)cc(F)c3s2)C(C)C1 (stereo not shown) [Compound 60, 5-amino-7-fluoro-2-(4-(1-(1-(5-fluoro-thiophen-2-ylethyl)-1H-tetrazol-5-yl)propyl)-2-methyl-piperazin-1-yl)benzothiazole] | H (EC1.5<5 μM) |
| CCC(c1nnnn1Cc1ccc([N+](=O)[O-])s1)N1CCN(c2nc3cc(N)cc(F)c3s2)CC1 (stereo not shown) [Compound 58, 5-amino-7-fluoro-2-(4-(1-(1-(5-nitro-thiophen-2-ylmethyl)-1H-tetrazol-5-yl)propyl)piperazin-1-yl)benzothiazole] | H (EC1.5<5 μM) |
| CCC(NCCNc1nc2cccc(F)c2s1)c1nnnn1Cc1cccs1 (stereo not shown) [Compound 27, N^1-(7-fluorobenzothiazol-2-yl)-N^2-(1-(1-(thiophen-2-ylmethyl)-1H-tetrazol-5-yl)propyl)ethane-1,2-diamine] | M (EC1.5-20 μM) |
| CCC(c1nnnn1Cc1cccs1)N1CCN(c2nc3c(F)cc(N)cc3s2)CC1 (stereo not shown) [Compound 50, 6-amino-4-fluoro-2-(4-(1-(1-(thiophen-2-ylmethyl)-1H-tetrazol-5-yl)propyl)piperazin-1-yl)benzothiazole] | H (EC1.5<5 μM) |
| CCC(c1nnnn1Cc1cccs1)N1CCN(c2nc3c(F)c(N)cc(F)c3s2)CC1 (stereo not shown) [Compound 48, 5-amino-4,7-difluoro-2-(4-(1-(1-(thiophen-2-ylmethyl)-1H-tetrazol-5-yl)propyl)piperazin-1-yl)benzothiazole] | H (EC1.5<5 μM) |
| CCC(c1nnnn1CCc1cccs1)N1CCN(C2Sc3c(F)cc(N)cc3N2[N+](=O)[O-])CC1 (stereo not shown) [Compound 62, 5-amino-7-fluoro-3-nitro-2-(4-(1-(1-(thiophen-2-ylethyl)-1H-tetrazol-5-yl)propyl)piperazin-1-yl)benzothiazole] | H (EC1.5<5 μM) |
| CCC(c1nnnn1Cc1cccs1)N1CCN(c2nc3ccc([N+](=O)[O-])cc3s2)CC1 (stereo not shown) [Compound 10, 6-nitro-2-(4-(1-(1-(thiophen-2-ylmethyl)-1H-tetrazol-5-yl)propyl)piperazin-1-yl)benzothiazole] | VL (EC1.5>50 μM) |
| CCC(c1nnnn1Cc1cccs1)N1CCN(c2nc3cc(F)ccc3s2)CC1 (stereo not shown) [Compound 25, 5-fluoro-2-(4-(1-(1-(thiophen-2-ylmethyl)-1H-tetrazol-5-yl)propyl)piperazin-1-yl)benzothiazole] | L (EC1.5 20-50 μM) |
| CCC(c1nnnn1Cc1cccs1)N1CCN(c2nc3cc([N+](=O)[O-])ccc3s2)CC1 (stereo not shown) [Compound 28, 5-nitro-2-(4-(1-(1-(thiophen-2-ylmethyl)-1H-tetrazol-5-yl)propyl)piperazin-1-yl)benzothiazole] | M (EC1.5-20 μM) |
| c1csc(Cn2nncc2CN2CCN(c3nc4ccccc4s3)CC2)c1 [Compound 1, 2-(4-((1-(thiophen-2-ylmethyl)-1H-1,2,3-triazol-5-yl)methyl)piperazin-1-yl)benzothiazole] | L (EC1.5 20-50 μM) |
